Where a name gives a salt, the structure may show the parent alone.
Key:
[1] = system: K562 cancer cell (CML cell line); test: Growth inhibition of K562 cancer cell (MTT); assay type: cell-based; settings: for IC50: Homo sapiens, K562, 48 h, K562, 2 days, MTT, read-out: IC50
Description: In the present experiment, the inhibitory activity of the compound of formula (1) was determined against the growth of K562 cancer cell. First, the cells were allowed to stand in RPMI (Roswell Park Memorial Institute)-1640 medium containing 10% (v/v) fetal bovine serum in an incubator of 37° C. and 5% by volume of CO2. The cancer cells (1000 cells) were transferred to a 96-well plate, and the test compound was diluted. The plate was allowed to stand under the above mentioned conditions for 2 days. […] The supernatant was removed to leave the resulting crystal.

[2] = system: U937 cancer cell (monocyte like leukemia cell line); test: Growth inhibition of U937 cancer cell (MTT); assay type: cell-based; settings: Homo sapiens, U-937
Description: (§1) In the present experiment, the inhibitory activity of the compound of formula (1) was determined against the growth of K562 cancer cell. First, the cells were allowed to stand in RPMI (Roswell Park Memorial Institute)-1640 medium containing 10% (v/v) fetal bovine serum in an incubator of 37° C. and 5% by volume of CO2. The cancer cells (1000 cells) were transferred to a 96-well plate, and the test compound was diluted. The plate was allowed to stand under the above mentioned conditions for 2 days. After this treatment, to the cells was added 0.2% MTT (3-[4,5-dimethylthiazol-2-yl]-2,5-diphenyltetrazolium bromide) solution, and the resulting mixture was allowed to stand under the constant temperature-condition for 4 hours. The supernatant was removed to leave the resulting crystal. DMSO was added to dissolve the crystal, and the absorbance of the solution was measured at 540 nm. IC50 value was calculated using a computer system according to the following formula: […]
In the present experiment, the inhibitory activity of the compound of formula (1) was determined against the growth of U937 cancer cell. The test was performed according to the same procedure as Experiment 1.

[3] = system: L1210 cancer cell (leukemia cell line); test: Growth inhibition of L1210 cancer cell (MTT); assay type: cell-based; settings: for IC50: Mus musculus
Description: as §1
In the present experiment, the inhibitory activity of the compound of formula (1) was determined against the growth of L1210 cancer cell. The test was performed according to the same procedure as Experiment 1.

[4] = Comparative pharmacokinetic test in white rats; assay type: in vivo, white rats (Sprague-Dawley); settings: male, Sprague-Dawley, plasma, po, rat, 100 mg/kg, P.O.
Description: On the previous day to the test, white rats (Sprague-Dawley, 250˜280 g, male) were put under anesthesia by pentobarbital sodium (50 mg/kg, I.P.). Then, cannula (polyethylene tube; diameter: 0.58mm) was introduced into the rats via the carotid artery and jugular vein, and drawn out to the back. After the operation, the rats were fasted for 16 hours and used for the test. […] Blood was collected in 0, 0.5, 1, 1.5, 2, 2.5, 3, 3.5, 4, 4.5, 5, 6, 8, 10, 12, and 24 hours from the carotid artery. The samples for HPLC analysis were prepared using the collected blood according to the following procedure and were analyzed under the following conditions.
Blood was collected by an amount of 0.5 ml at each prearranged time and centrifuged at 15000 rpm for 7 minutes to separate […] of plasma. In order to remove proteins, MeOH was added in an amount of […], twice as much as the amount of plasma, and the mixture was shaken for 30 minutes. The mixture was centrifuged again at 15000 rpm for 5 minutes to give protein free supernatant, which was then analyzed by HPLC.
Flow rate: 1.0 ml/min, UV detection at 267 nm
Column: 4.6×150 mm, 5C18-AR-II, COSMOSIL
Eluent: Mixture of ion pair sample (420 ml) and MeOH (580 ml)
Ion pair sample: 7.5 g of 1-octanesulfonic acid was dissolved in 800 ml of water. The resulting mixture was adjusted to pH 2.5 using phosphoric acid and diluted with water to 1000 ml volume.
Here, the pharmacokinetic parameters are Tmax (time to reach the maximum blood concentration), Cmax (maximum blood concentration), AUC (area under the curve of time-blood concentration), and T1/2 (half time in blood), and the AUC was calculated under trapezoid rule (see Tables 6, 7 and FIGS. 1, 2).

CN1CCN(NCc2ccc(C(=O)Nc3ccc(Nc4nccc(-c5cccnc5)n4)cc3)cc2)CC1.Cl [Example 43, 4-(4-methylpiperazin-1-ylaminomethyl)-N-[4-(4-(pyridin-3-yl)pyrimidin-2-yl)aminophenyl]benzamide hydrochloride]
IC50 [1]: > 50 µg/mL
melting point: 183 to 185 °C

CN1CCN(NCc2ccc(C(=O)Nc3cccc(Nc4nccc(-c5cccnc5)n4)c3)cc2)CC1.CS(=O)(=O)O [Example 14, 4-(4-methylpiperazin-1-ylaminomethyl)-N-[3-(4-(pyridin-3-yl)pyrimidin-2-yl)aminophenyl]benzamide methanesulfonate]
IC50 [1]: 8.95 µg/mL
melting point: 148 to 150 °C

CN1CCN(NCc2ccc(C(=O)Nc3ccc(Nc4nccc(-c5cccnc5)n4)cc3)cc2)CC1.CS(=O)(=O)O [Example 30, 4-(4-methylpiperazin-1-ylaminomethyl)-N-[4-(4-(pyridin-3-yl)pyrimidin-2-yl)aminophenyl]benzamide methanesulfonate]
IC50 [1]: 22.8 µg/mL
melting point: 151 to 153 °C

CN1CCN(NCc2ccc(C(=O)Nc3cc(Nc4nccc(-c5cccnc5)n4)ccc3F)cc2)CC1.CS(=O)(=O)O [Example 28, 4-(4-methylpiperazin-1-ylaminomethyl)-N-[2-fluoro-5-(4-(pyridin-3-yl)pyrimidin-2-yl)aminophenyl]benzamide methanesulfonate]
IC50 [1]: 8.63 µg/mL
melting point: 142 to 144 °C

CN1CCCN(Cc2ccc(C(=O)Nc3cc(Nc4nccc(-c5cccnc5)n4)ccc3F)cc2)CC1.CS(=O)(=O)O [Example 24, 4-(4-methylhomopiperazin-1-ylmethyl)-N-[2-fluoro-5-(4-(pyridin-3-yl)pyrimidin-2-yl)aminophenyl]benzamide methanesulfonate]
IC50 [1]: 19.1 µg/mL
melting point: 125 to 127 °C

Cc1ccc(NC(=O)c2ccc(CNN3CCN(C)CC3)cc2)cc1Nc1nccc(-c2cccnc2)n1.Cl [Example 42, 4-(4-methylpiperazin-1-ylaminomethyl)-N-[4-methyl-3-(4-(pyridin-3-yl)pyrimidin-2-yl)aminophenyl]benzamide hydrochloride]
IC50 [1]: 0.3 µg/mL
Improved activity versus Imatinib mesylate ([1]; K562): much higher activity

CS(=O)(=O)O.O=C(Nc1cccc(Nc2nccc(-c3cccnc3)n2)c1)c1ccc(CN2CCCCC2)cc1 [Example 36, 4-(piperidin-1-ylmethyl)-N-[3-(4-(pyridin-3-yl)pyrimidin-2-yl)aminophenyl]benzamide methanesulfonate]
IC50 [1]: 11.3 µg/mL
melting point: 173 to 175 °C
IC50 [2]: 6.91 µg/mL
IC50 [3]: 5.95 µg/mL

Cc1ccc(NC(=O)c2ccc(CN3CCN(C)CC3)cc2)cc1Nc1nccc(-c2cccnc2)n1 [Imatinib mesylate, reference compound]
Cmax [4]: 2720 ng/mL
Tmax [4]: 2.3 h
AUC ([4]; trapezoid rule): 26500 ng·h/mL

CN1CCCN(Cc2ccc(C(=O)Nc3ccc(Nc4nccc(-c5cccnc5)n4)cc3)cc2)CC1.Cl [Example 41, 4-(4-methylhomopiperazin-1-ylmethyl)-N-[4-(4-(pyridin-3-yl)pyrimidin-2-yl)aminophenyl]benzamide hydrochloride]
IC50 [1]: 5.61 µg/mL

CS(=O)(=O)O.Cc1ccc(Nc2nccc(-c3cccnc3)n2)cc1NC(=O)c1ccc(CN2CCCN(C)CC2)cc1 [Example 6, 4-(4-methylhomopiperazin-1-ylmethyl)-N-[2-methyl-5-(4-(pyridin-3-yl)pyrimidin-2-yl)aminophenyl]benzamide methanesulfonate]
IC50 [1]: 20.5 µg/mL
melting point: 168 to 170 °C
IC50 [2]: 5.14 µg/mL
Improved activity versus Imatinib mesylate [3]: 10 times
IC50 [3]: 3.24 µg/mL

COc1ccc(NC(=O)c2ccc(CNN3CCN(C)CC3)cc2)cc1Nc1nccc(-c2cccnc2)n1.CS(=O)(=O)O [Example 22, 4-(4-methylpiperazin-1-ylaminomethyl)-N-[4-methoxy-3-(4-(pyridin-3-yl)pyrimidin-2-yl)aminophenyl]benzamide methanesulfonate]
IC50 [1]: 10 µg/mL
melting point: 142 to 144 °C
IC50 [2]: 8.61 µg/mL
IC50 [3]: 4.46 µg/mL

CS(=O)(=O)O.Cc1cc(NC(=O)c2ccc(CNN3CCN(C)CC3)cc2)ccc1Nc1nccc(-c2cccnc2)n1
melting point: 172 to 174 °C

CN1CCN(Cc2ccc(C(=O)Nc3ccc(F)c(Nc4nccc(-c5cccnc5)n4)c3)cc2)CC1.CS(=O)(=O)O [Example 32, 4-(4-methylpiperazin-1-ylmethyl)-N-[4-fluoro-3-(4-(pyridin-3-yl)pyrimidin-2-yl)aminophenyl]benzamide methanesulfonate]
IC50 [1]: 8.06 µg/mL
melting point: 172 to 174 °C

CC(=O)O.CN1CCN(NCc2ccc(C(=O)Nc3ccc(Nc4nccc(-c5cccnc5)n4)cc3)cc2)CC1
melting point: 169 to 171 °C

COc1ccc(NC(=O)c2ccc(CN3CCCN(C)CC3)cc2)cc1Nc1nccc(-c2cccnc2)n1.CS(=O)(=O)O [Example 20, 4-(4-methylhomopiperazin-1-ylmethyl)-N-[4-methoxy-3-(4-(pyridin-3-yl)pyrimidin-2-yl)aminophenyl]benzamide methanesulfonate]
IC50 [1]: 34.7 µg/mL
melting point: 140 to 142 °C
IC50 [2]: 9.51 µg/mL
IC50 [3]: 4.32 µg/mL

CN1CCCN(Cc2ccc(C(=O)Nc3ccc(F)c(Nc4nccc(-c5cccnc5)n4)c3)cc2)CC1.CS(=O)(=O)O [Example 34, 4-(4-methylhomopiperazin-1-ylmethyl)-N-[4-fluoro-3-(4-(pyridin-3-yl)pyrimidin-2-yl)aminophenyl]benzamide methanesulfonate]
IC50 [1]: 7.17 µg/mL
melting point: 158 to 160 °C

CN1CCCN(Cc2ccc(C(=O)Nc3cccc(Nc4nccc(-c5cccnc5)n4)c3)cc2)CC1.CS(=O)(=O)O [Example 12, 4-(4-methylhomopiperazin-1-ylmethyl)-N-[3-(4-(pyridin-3-yl)pyrimidin-2-yl)aminophenyl]benzamide methanesulfonate]
IC50 [1]: 10.2 µg/mL
melting point: 206 to 208 °C
IC50 [2]: 3.41 µg/mL
Improved activity versus Imatinib mesylate [3]: 32 times
IC50 [3]: 0.99 µg/mL

CS(=O)(=O)O.Cc1ccc(Nc2nccc(-c3cccnc3)n2)cc1NC(=O)c1ccc(CNN2CCN(C)CC2)cc1 [Example 8, 4-(4-methylpiperazin-1-ylaminomethyl)-N-[2-methyl-5-(4-(pyridin-3-yl)pyrimidin-2-yl)aminophenyl]benzamide methanesulfonate]
IC50 [1]: 27.6 µg/mL
melting point: 150 to 152 °C
IC50 [2]: 9.44 µg/mL
IC50 [3]: 7.38 µg/mL

CS(=O)(=O)O.Cc1cc(NC(=O)c2ccc(CN3CCCN(C)CC3)cc2)ccc1Nc1nccc(-c2cccnc2)n1 [Example 16, 4-(4-methylhomopiperazin-1-ylmethyl)-N-[3-methyl-4-(4-(pyridin-3-yl)pyrimidin-2-yl)aminophenyl]benzamide methanesulfonate]
IC50 [1]: > 50 µg/mL
melting point: 166 to 168 °C

Reference: US20040248918A1, “N-phenyl-2-pyrimidine-amine derivatives and process for the preparation thereof” (IL YANG PHARM. CO., LTD., priority 2003, published 2004)
